According to patent publication US12485134B2, “Use of nicotinamide riboside, nicotinic acid riboside, reduced nicotinyl riboside compounds, and nicotinyl riboside compound derivatives in formulations” (ChromaDex Inc., priority 2019, dated 2025):

Tested on: milk concentrate proteins
Assay: WaterLOGSY NMR binding of NR-Cl
Conditions: pH 7.0
Experimental: WaterLOGSY is a sensitive ligand-observed NMR experiment designed for the screening of protein ligands from a mixture of potential binders. […] The experiment relies on fast dissociation of bound ligands to carry into the free state magnetisation originating from irradiated water that has been transmitted via the protein complex.
NMR samples for WaterLOGSY were prepared as follows. Ligand-detect WaterLOGSY experiments were carried at 600 MHz with 5-mm cryoprobe and using 5-mm NMR tubes. Each NMR sample for WaterLOGSY contained ˜0.05 mg (˜0.35 mM), using unlabeled ligand NR-Cl (“NR”), in a NMR buffer containing ˜0.5 mL 90% H2O/10% ^2H2O at pH 7.0 with or without the milk and soy protein mix (compared to the WaterLOGSY of NR as a negative control). Protein was added as a powder with a minimal 15 to 50 μM concentration. Typically, the final NMR sample of protein-compound mixtures had >20-fold higher compound concentration of ligand compared to that of the protein. Denatured samples were prepared by simply heating (80° C. for 15-20 mins) the aqueous (5-10% ^2H2O) protein mixture (in absence of NR).
The NR only WaterLOGSY spectrum (FIG. 23) was the negative control to screen for any potential binding of NR-Cl to milk concentrate and soy isolate proteins as shown herein and discussed below.

Q: Which results are given for `NC(=O)c1ccc[n+]([C@@H]2O[C@H](CO)[C@@H](O)[C@H]2O)c1.[Cl-]` [NR-Cl, nicotinamide riboside chloride]?
A: WaterLOGSY binding (denatured milk concentrate (80° C. for 15-20 mins)): decreased binding; WaterLOGSY binding (milk concentrate): evidence of positive binding
